Laboratory results published in patent US20190177284A1, “TETRAZOLYL-CONTAINING CYCLOPROPANECARBOXAMIDES” (Bayer Pharma Aktiengesellschaft, priority 2017, published 2019).

Target: T1, human Bradykinin B1 receptor (Homo sapiens, UniProt P46663)
T1 construct: host or cells: CHO-K1
T1 sequence (P46663 1-353): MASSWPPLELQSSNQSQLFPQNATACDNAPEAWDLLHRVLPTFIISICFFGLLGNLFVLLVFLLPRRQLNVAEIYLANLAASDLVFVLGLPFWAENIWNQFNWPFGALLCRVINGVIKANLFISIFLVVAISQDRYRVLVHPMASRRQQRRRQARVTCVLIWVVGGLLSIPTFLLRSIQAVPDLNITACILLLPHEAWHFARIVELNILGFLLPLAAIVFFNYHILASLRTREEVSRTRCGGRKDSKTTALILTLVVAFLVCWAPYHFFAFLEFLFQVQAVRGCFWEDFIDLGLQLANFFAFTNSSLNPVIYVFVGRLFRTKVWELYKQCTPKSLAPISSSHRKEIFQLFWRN
Test: Calcium flux Assay (FLIPR) with cells expressing human Bradykinin B1 receptor (hB1)
Format: cell-based
Settings: absence of 0.1% BSA in assay buffer; CHO-K1 cell line expressing human B1 receptor; agonist Lys-(Des-Arg)-Bradykinin; read-out: hB1 free IC50
Description: The potency to inhibit the Bradykinin B1 receptor was determined for the compound examples of this invention in a cell-based fluorescent calcium-mobilisation assay. The assay measures the ability of compound examples to inhibit Bradykinin B1 receptor agonist-induced increase of intracellular free Ca^2+ in the cell line expressing Bradykinin B1 receptor. Specifically, calcium indicator-loaded cells are pre-incubated in the absence or presence of different concentrations of compound examples followed by the stimulation with a selective Bradykinin B1 receptor agonist peptide. The change of the intracellular Ca^2+ concentration is monitored with a fluorescent plate reader FLIPR^TETRA®
Calcium flux Assays (FLIPR) with cells expressing human Bradykinin B1 receptor (hB1) Calcium flux Assay (FLIPR) with recombinant cells for Bradykinin B1 receptor antagonist, either in the presence (hB1 IC50) or absence (hB1 free IC50) of 0.1% Bovine Serum Albumin (BSA) in assay buffer.
CHO—K1 cell line expressing human B1 receptor was purchased from Euroscreen (Gosselies, Belgium, with reference name hB1-D1). The cells were grown in Nutrient Mixture Ham's F12 (Sigma) containing 10% Foetal bovine serum (Sigma) and 400 μg/mL G418 (Sigma), 5 μg/mL puromycin (Sigma).
For the calcium flux assay, 80% confluent cells were detached from the culture vessels with Versene (Gibco), and seeded into 384-well plates (Cell binding Surface; Corning, N.Y.; #3683) at a density of 15,000 cells per well. Cells were seeded in a volume of 50 μL in medium without antibiotics and incubated overnight in a humidified atmosphere with 5% CO2 at 37° C. […] The calcium indicator loaded cells were incubated at 37° C. for 2 hrs. Extracellular dye was then removed and each well was filled with 45 μL of assay buffer. Cell plates were kept in dark until used. Example compounds were assayed at 8 concentrations in triplicate. Serial 10-fold dilutions in 100% DMSO were made at a 100-times higher concentration than the final concentration, and then diluted 1:10 in assay buffer. 5 μL of each diluted compound was added to the well of cell plates (yielding final concentration with 1% DMSO), and incubated for 30 min at 28° C. before the addition of B1 receptor agonist on the FLIPR instrument.
Agonist plates contained the agonist Lys-(Des-Arg)-Bradykinin (Bachem, Brackley) at 3.5×EC90 in assay buffer with 1% DMSO. The addition of agonist 20 μl per well to the assay plate was carried out on the FLIPR instrument while continuously monitoring Ca^2+-dependent fluorescence at 538 nm. A peptide antagonist Lys-(Des-Arg-Leu)-Bradykinin (Bachem, Brackley) at 20 μM was used to determine the full inhibition as control.
Peak fluorescence was used to determine the response to agonist obtained at each concentration of example compound by the following equation:
% Response=100*(RFU(example compound)−RFU(control))/(RFU(DMSO)−RFU(control)) • RFU means relative fluorescence units. • Control means full inhibition by the peptide antagonist Lys-(Des-Arg-Leu)-Bradykinin at 20
The response values were plotted against the logarithm of the example compound concentrations. The example compounds were tested in triplicates per plate and mean values were plotted in Excel XLfit to determine IC50 values, percentage of maximal inhibition and the Hill slopes.
IC50 values of example compounds in Calcium flux Assay (FLIPR) as shown in table 1 were determined according to the protocol described above in the absence of 0.1% BSA in assay buffer.

SMILES	IC50 [nM]
O=C(O[C@@H]1CCOC1)c1ccc(NC(=O)C2(c3ccc(C(F)(F)F)cc3F)CC2)cc1-c1nnn[nH]1 [Example 20, (3R)-Tetrahydrofuran-3-yl 4-[({1-[2-fluoro-4-(trifluoromethyl)phenyl]cyclopropyl}carbonyl)amino]-2-(1H-tetrazol-5-yl)benzoate]	14
O=C(OC1CCOCC1)c1ccc(NC(=O)C2(c3ccc(C(F)(F)F)cc3F)CC2)cc1-c1nnn[nH]1 [Example 21, Tetrahydro-2H-pyran-4-yl 4-[({1-[2-fluoro-4-(trifluoromethyl)phenyl]cyclopropyl}carbonyl)amino]-2-(1H-tetrazol-5-yl)benzoate]	22
O=C(OCC1CCOCC1)c1ccc(NC(=O)C2(c3ccc(C(F)(F)F)cc3F)CC2)cc1-c1nnn[nH]1 [Example 22, Tetrahydro-2H-pyran-4-ylmethyl 4-[({1-[2-fluoro-4-(trifluoromethyl)phenyl]cyclopropyl}carbonyl)amino]-2-(1H-tetrazol-5-yl)benzoate]	18
CN1CCC(OC(=O)c2ccc(NC(=O)C3(c4ccc(C(F)(F)F)cc4F)CC3)cc2-c2nnn[nH]2)CC1 [Example 23, 1-Methylpiperidin-4-yl 4-[({1-[2-fluoro-4-(trifluoromethyl)phenyl]cyclopropyl}carbonyl)amino]-2-(1H-tetrazol-5-yl)benzoate]	319
CC[C@@H](C)OC(=O)c1ccc(NC(=O)C2(c3ccc(C(F)(F)F)cc3F)CC2)cc1-c1nnn[nH]1 [Example 24, (2R)-Butan-2-yl 4-[({1-[2-fluoro-4-(trifluoromethyl)phenyl]cycloproyl}carbonyl)amino]-2-(1H-tetrazol-5-yl)benzoate]	2
CC[C@H](C)OC(=O)c1ccc(NC(=O)C2(c3ccc(C(F)(F)F)cc3F)CC2)cc1-c1nnn[nH]1 [Example 25, (2S)-Butan-2-yl 4-[({1-[2-fluoro-4-(trifluoromethyl)phenyl]cyclopropyl}carbonyl)amino]-2-(1H-tetrazol-5-yl)benzoate]	3
CC[C@@H](C)OC(=O)c1ccc(NC(=O)C2(c3ccc(OC(F)(F)F)cc3F)CC2)cc1-c1nnn[nH]1 [Example 26, (2R)-Butan-2-yl 4-[({1-[2-fluoro-4-(trifluoromethoxy)phenyl]cyclopropyl}carbonyl)amino]-2-(1H-tetrazol-5-yl)benzoate]	3
CC[C@H](C)OC(=O)c1ccc(NC(=O)C2(c3ccc(OC(F)(F)F)cc3F)CC2)cc1-c1nnn[nH]1 [Example 27, (2S)-Butan-2-yl 4-[({1-[2-fluoro-4-(trifluoromethoxy)phenyl]cyclopropyl}carbonyl)amino]-2-(1H-tetrazol-5-yl)benzoate]	2
CC(C)COC(=O)c1ccc(NC(=O)C2(c3ccc(C(F)(F)F)cc3F)CC2)cc1-c1nnn[nH]1 [Example 28, Isobutyl 4-[({1-[2-fluoro-4-(trifluoromethyl)phenyl]cyclopropyl}carbonyl)amino]-2-(1H-tetrazol-5-yl)benzoate]	3
CC(C)(C)COC(=O)c1ccc(NC(=O)C2(c3ccc(C(F)(F)F)cc3F)CC2)cc1-c1nnn[nH]1 [Example 29, 2,2-Dimethylpropyl 4-[({1-[2-fluoro-4-(trifluoromethyl)phenyl]cyclopropyl}carbonyl)amino]-2-(1H-tetrazol-5-yl)benzoate]	6
O=C(OC1CCC1)c1ccc(NC(=O)C2(c3ccc(C(F)(F)F)cc3F)CC2)cc1-c1nnn[nH]1 [Example 30, Cyclobutyl 4-[({1-[2-fluoro-4-(trifluoromethyl)phenyl]cyclopropyl}carbonyl)amino]-2-(1H-tetrazol-5-yl)benzoate]	2
O=C(c1ccc(NC(=O)C2(c3cccc(Cl)c3)CC2)cc1-c1nnn[nH]1)N1CCCCC1 [Example 33, 1-(3-Chlorophenyl)-N-[4-(piperidin-1-ylcarbonyl)-3-(1H-tetrazol-5-yl)phenyl]cyclopropanecarboxamide]	633
O=C(c1ccc(NC(=O)C2(c3ccc(C(F)(F)F)cc3F)CC2)cc1-c1nnn[nH]1)N1CCCCC1 [Example 34, 1-[2-Fluoro-4-(trifluoromethyl)phenyl]-N-[4-(piperidin-1-ylcarbonyl)-3-(1H-tetrazol-5-yl)phenyl]cyclopropanecarboxamide]	70
COC1CCN(C(=O)c2ccc(NC(=O)C3(c4ccc(C(F)(F)F)cc4F)CC3)cc2-c2nnn[nH]2)CC1 [Example 36, 1-[2-Fluoro-4-(trifluoromethyl)phenyl]-N-{4-[(4-methoxypiperidin-1-yl)carbonyl]-3-(1H-tetrazol-5-yl)phenyl}cyclopropanecarboxamide]	523
CC[C@@H](C)NC(=O)c1ccc(NC(=O)C2(c3ccc(C(F)(F)F)cc3F)CC2)cc1-c1nnn[nH]1 [Example 37, N-[(2R)-butan-2-yl]-4-[({1-[2-fluoro-4-(trifluoromethyl)phenyl]cyclopropyl}carbonyl)amino]-2-(1H-tetrazol-5-yl)benzamide]	121
CC[C@H](C)NC(=O)c1ccc(NC(=O)C2(c3ccc(C(F)(F)F)cc3F)CC2)cc1-c1nnn[nH]1 [Example 38, N-[(2S)-butan-2-yl]-4-[({1-[2-fluoro-4-(trifluoromethyl)phenyl]cyclopropyl}carbonyl)amino]-2-(1H-tetrazol-5-y)benzamide]	80
O=C(NC1CCCC1)c1ccc(NC(=O)C2(c3ccc(C(F)(F)F)cc3F)CC2)cc1-c1nnn[nH]1 [Example 39, N-cyclopentyl-4-[({1-[2-fluoro-4-(trifluoromethyl)phenyl]cyclopropyl}carbonyl)amino]-2-(1H-tetrazol-5-yl)benzamide]	34
CN(C(=O)c1ccc(NC(=O)C2(c3cccc(Cl)c3)CC2)cc1-c1nnn[nH]1)C1CCCC1 [Example 40, 4-({[1-(3-Chlorophenyl)cyclopropyl]carbonyl}amino)-N-cylcopentyl-N-methyl-2-(1H-tetrazol-5-yl)benzamide]	1240
CN(C(=O)c1ccc(NC(=O)C2(c3ccc(C(F)(F)F)cc3F)CC2)cc1-c1nnn[nH]1)C1CCCC1 [Example 41, N-cyclopentyl-4-[({1-[2-fluoro-4-(trifluoromethyl)phenyl]cyclopropyl}carbonyl)amino]-N-methyl-2-(1H-tetrazol-5-yl)benzamide]	205
O=C(NC1CCCCC1)c1ccc(NC(=O)C2(c3ccc(C(F)(F)F)cc3F)CC2)cc1-c1nnn[nH]1 [Example 42, N-cyclohexyl-4-[({1-[2-fluoro-4-(trifluoromethyl)phenyl]cyclopropyl}carbonyl)amino]-2-(1H-tetrazol-5-yl)benzamide]	34
CN(C(=O)c1ccc(NC(=O)C2(c3ccc(C(F)(F)F)cc3F)CC2)cc1-c1nnn[nH]1)C1CCCCC1 [Example 43, N-cyclohexyl-4-[({1-[2-fluoro-4-(trifluoromethyl)phenyl]cyclopropyl}carbonyl)amino]-N-methyl-2-(1H-tetrazol-5-yl)benzamide]	50
O=C(NCC1CCCCC1)c1ccc(NC(=O)C2(c3ccc(C(F)(F)F)cc3F)CC2)cc1-c1nnn[nH]1 [Example 44, N-(cyclohexylmethyl)-4-[({1-[2-fluoro-4-(trifluoromethyl)phenyl]cyclopropyl}carbonyl)amino]-2-(1H-tetrazol-5-yl)benzamide]	13
